Data on eleven molecules can be found in ChEMBL document CHEMBL1201862, “PubChem BioAssay data set” (2004).

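Exposure lasted 48 hours, with cells grown in 96-well plates and compounds tested at five concentrations. Here, GI50 denotes the concentration required for 50% inhibition of growth.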 The source made the active and inactive calls. Cut-off read from the data, not from the text of the source: active = GI50 up to about 1.1 µM and inactive = higher.

Test systems include CAKI-1; HCT-116; A498; SNB-19; SK-MEL-5; UACC-257; RXF 393; SK-OV-3; Hs-578T; SF-539; NCI/ADR-RES; SNB-75; LOX IMVI; DU-145; MDA-MB-435; HL-60; PC-3; NCI-H226; SF-268; MDA-MB-231.
Experiment in all cases: growth of human tumour cells (NCI), 48 h

Regarding `CCOC(=O)CCC(C(=O)OCC)n1nc2ccc(Nc3c(C)[n+]([O-])c4cc(F)c(OCC)cc4[n+]3[O-])cc2n1` (stereo not given), the GI50 with CAKI-1 is > 100 µM (inactive); in the assay with HCT-116 it was 50.8 µM (inactive); in the assay with A498, 52.4 µM (inactive); in the assay with SNB-19 it was 31.9 µM (inactive); with SK-MEL-5 it was 82.8 µM (inactive); in the assay on UACC-257, > 100 µM (inactive). The GI50 is 11.6 µM (inactive) with RXF 393; 31.9 µM (inactive) in the assay with SK-OV-3; 26.2 µM (inactive) in the assay with Hs-578T; 22.5 µM (inactive) in the assay with SF-539; 62.1 µM (inactive) with NCI/ADR-RES; 15.8 µM (inactive) in the assay on SNB-75. Further, the GI50 in the assay with LOX IMVI was > 100 µM (inactive); in the assay on DU-145, > 100 µM (inactive); in the assay on MDA-MB-435, > 100 µM (inactive); with HL-60, > 100 µM (inactive); in the assay with PC-3 it was 37.2 µM (inactive); with NCI-H226 it was 36.7 µM (inactive). Moreover, in the assay with SF-268, the GI50 is 14 µM (inactive).

For `COc1ccc2oc(=O)c(-c3csc(C)n3)cc2c1`, the GI50 is > 100 µM (inactive) with CAKI-1; 58.3 µM (inactive) in the assay on HCT-116; 28.8 µM (inactive) in the assay on SNB-19; > 100 µM (inactive) in the assay on SK-MEL-5; 24.7 µM (inactive) in the assay with MDA-MB-231; > 100 µM (inactive) in the assay with UACC-257. In addition, the GI50 in the assay on RXF 393 was 30.5 µM (inactive); in the assay with SK-OV-3, 28.1 µM (inactive); with Hs-578T, 30.7 µM (inactive); with SF-539, 22.2 µM (inactive); in the assay with SNB-75, 30.5 µM (inactive); in the assay with LOX IMVI, > 100 µM (inactive). For the same molecule, the GI50 is > 100 µM (inactive) in the assay with DU-145; > 100 µM (inactive) in the assay with MDA-MB-435; > 100 µM (inactive) with HL-60; > 100 µM (inactive) in the assay on PC-3; 29.2 µM (inactive) with NCI-H226; 21.6 µM (inactive) in the assay on SF-268.

Consider `CCOC(=O)COc1c(OC)cc(C2C3=C(COC3=O)Oc3cc4c(cc32)OCO4)cc1OC` (stereo not given), for which the GI50 with CAKI-1 was 3.41 µM (inactive); with HCT-116 it was 0.773 µM (active); in the assay with SNB-19 it was 13 µM (inactive); in the assay on SK-MEL-5 it was 0.244 µM (active); in the assay on MDA-MB-231, 3.03 µM (inactive); in the assay with UACC-257 it was 9.77 µM (inactive). In addition, the GI50 was 3.17 µM (inactive) in the assay on SK-OV-3; 4.51 µM (inactive) in the assay with Hs-578T; 3.57 µM (inactive) in the assay on SF-539; 3.37 µM (inactive) in the assay on NCI/ADR-RES; 4.62 µM (inactive) in the assay on SNB-75; 0.625 µM (active) with LOX IMVI. Besides, the GI50 in the assay on DU-145 was 4.5 µM (inactive); in the assay with MDA-MB-435, 0.0635 µM (active); with HL-60, 0.138 µM (active); with PC-3, 1.87 µM (inactive); with NCI-H226, > 54 µM (inactive); in the assay with SF-268, 13.5 µM (inactive).

Consider `O=S(=O)(c1ccccc1)c1ccc(-c2nc(-c3ccc4c(c3)Sc3ccccc3S4)cs2)cc1`, for which the GI50 with CAKI-1 was > 100 µM (inactive); in the assay with HCT-116 it was 73.3 µM (inactive); with SNB-19, 11.7 µM (inactive); in the assay on MDA-MB-231, 20.5 µM (inactive); in the assay on UACC-257, > 100 µM (inactive); in the assay on RXF 393, 15.8 µM (inactive). Besides, the GI50 with SK-OV-3 was 18.9 µM (inactive); in the assay on Hs-578T, 8.69 µM (inactive); with SF-539, 49.5 µM (inactive); with SNB-75, 10.8 µM (inactive); with LOX IMVI it was > 100 µM (inactive); with DU-145, > 100 µM (inactive). Further, the GI50 in the assay with MDA-MB-435 was > 100 µM (inactive); in the assay with HL-60 it was > 100 µM (inactive); in the assay with PC-3 it was > 100 µM (inactive); with NCI-H226, 67 µM (inactive); in the assay on SF-268 it was 26.7 µM (inactive).

As for `Cc1cc(N(CCC#N)CCC#N)ccc1C(/N=N/c1ccc([N+](=O)[O-])cc1)=N\NC(=O)c1cc(Cl)ccc1C(=O)c1ccccc1`, the GI50 with CAKI-1 was 12.5 µM (inactive); in the assay with HCT-116, 4.23 µM (inactive); in the assay on SNB-19 it was 46.7 µM (inactive); with SK-MEL-5 it was 12 µM (inactive); in the assay on MDA-MB-231 it was 11.2 µM (inactive); in the assay with UACC-257, 32.2 µM (inactive). For the same molecule, the GI50 was 13 µM (inactive) in the assay on RXF 393; 13.5 µM (inactive) in the assay on SK-OV-3; 17.4 µM (inactive) with Hs-578T; 12.2 µM (inactive) in the assay with NCI/ADR-RES; 24.6 µM (inactive) in the assay on SNB-75; 10.9 µM (inactive) in the assay on DU-145. In addition, the GI50 with MDA-MB-435 was 22.6 µM (inactive); in the assay on PC-3, 6.5 µM (inactive); in the assay on NCI-H226, 10 µM (inactive); in the assay with SF-268, 6.07 µM (inactive).

For `CC1(O)/C(=N/O)CC2CC1C2(C)C` (stereo not given), the GI50 with SNB-19, in the assay on SK-MEL-5, in the assay on MDA-MB-231, in the assay on UACC-257, with RXF 393 and with Hs-578T was > 100 µM (inactive) throughout. For the same molecule, the GI50 in the assay on SNB-75, in the assay with LOX IMVI, in the assay with DU-145, with MDA-MB-435, with HL-60 and in the assay with NCI-H226 was > 100 µM (inactive) throughout. In the assay with SF-268, the GI50 was > 100 µM (inactive).

On to `O=C(NC1CCCCC1)N1CCNC1=S`, for which the GI50 in the assay with CAKI-1 is > 100 µM (inactive); with HCT-116 it was > 100 µM (inactive); in the assay on A498, > 100 µM (inactive); with SK-MEL-5 it was > 100 µM (inactive); in the assay with MDA-MB-231, 3.2 µM (inactive); with UACC-257 it was > 100 µM (inactive). For the same molecule, the GI50 in the assay on RXF 393 was 7.71 µM (inactive); in the assay with SK-OV-3 it was > 100 µM (inactive); in the assay on Hs-578T it was > 100 µM (inactive); in the assay on SF-539, 65.6 µM (inactive); in the assay with NCI/ADR-RES it was > 100 µM (inactive); in the assay with SNB-75, > 100 µM (inactive). The GI50 in the assay with LOX IMVI is > 100 µM (inactive); with DU-145, > 100 µM (inactive); with MDA-MB-435, > 100 µM (inactive); in the assay on HL-60, > 100 µM (inactive); in the assay on NCI-H226 it was 45.3 µM (inactive); with SF-268, > 100 µM (inactive).

As for `Cc1ccc(CS(=O)(=O)C/N=C2\Sc3ccccc3N\C2=C/C(=O)c2ccc(Cl)cc2)cc1`, the GI50 in the assay on CAKI-1, with HCT-116, with SNB-19, in the assay on SK-MEL-5, with MDA-MB-231 and with UACC-257 was > 10 µM (inactive) each time. In addition, the GI50 in the assay on SK-OV-3 was > 10 µM (inactive); with Hs-578T it was 9.55 µM (inactive); in the assay on SF-539, > 10 µM (inactive); in the assay on NCI/ADR-RES it was > 10 µM (inactive); in the assay with SNB-75, 3.86 µM (inactive); in the assay with LOX IMVI it was > 10 µM (inactive). For the same molecule, the GI50 in the assay with DU-145 is > 10 µM (inactive); in the assay with MDA-MB-435, > 10 µM (inactive); in the assay with HL-60 it was 1 µM (active); in the assay with PC-3, > 10 µM (inactive); in the assay with SF-268, 7.1 µM (inactive).

On to `CCOC(=O)c1c(SCCCN2CCCCC2)n(-c2ccccc2)c(=S)n(-c2ccccc2)c1=O`, for which the GI50 is 12.4 µM (inactive) in the assay with HCT-116; 20.1 µM (inactive) in the assay on A498; 16.7 µM (inactive) in the assay on SNB-19; 16.4 µM (inactive) in the assay with SK-MEL-5; 19.4 µM (inactive) with MDA-MB-231; 18.3 µM (inactive) in the assay on RXF 393. Besides, the GI50 in the assay with Hs-578T was 20.9 µM (inactive); in the assay on SF-539, 14.8 µM (inactive); with DU-145 it was 16.4 µM (inactive); in the assay on MDA-MB-435, 15.8 µM (inactive); with HL-60, 2.62 µM (inactive); with PC-3, 16.4 µM (inactive). Besides, the GI50 in the assay on NCI-H226 is 15.6 µM (inactive); with SF-268, 37.5 µM (inactive).

As to `Cc1ccc(S(N)(=O)=O)cc1` [P-TOLUENESULFONAMIDE], the GI50 in the assay with HCT-116 is > 1000 µM (inactive); in the assay on A498, > 1000 µM (inactive); in the assay on SNB-19, > 1000 µM (inactive); in the assay with SK-MEL-5, > 1000 µM (inactive); in the assay with UACC-257, > 1000 µM (inactive); in the assay on RXF 393, 502 µM (inactive). Moreover, the GI50 in the assay with SK-OV-3, with Hs-578T, with SF-539, with NCI/ADR-RES, in the assay on LOX IMVI and in the assay with DU-145 was > 1000 µM (inactive) throughout. For the same molecule, the GI50 in the assay with MDA-MB-435, with HL-60, in the assay with PC-3, in the assay on NCI-H226 and in the assay on SF-268 was > 1000 µM (inactive) each time.

As to `CC(NC(=O)C(C)C(=O)Nc1ccc(C(F)(F)F)cc1)C(N)=O` (stereo not given), the GI50 is > 100 µM (inactive) in the assay on CAKI-1; > 100 µM (inactive) with HCT-116; 94 µM (inactive) with SNB-19; > 100 µM (inactive) with SK-MEL-5; > 100 µM (inactive) with MDA-MB-231; > 100 µM (inactive) with UACC-257. The GI50 in the assay with RXF 393, in the assay with SK-OV-3, in the assay on Hs-578T, in the assay on SF-539, in the assay with NCI/ADR-RES and in the assay on SNB-75 was > 100 µM (inactive) throughout. For the same molecule, the GI50 in the assay with DU-145, in the assay with MDA-MB-435, in the assay on HL-60, in the assay with PC-3, in the assay on NCI-H226 and in the assay with SF-268 was > 100 µM (inactive) throughout.
